ChEMBL document CHEMBL4808180, “Identification of 2,2-Dimethylbutanoic Acid (HST5040), a Clinical Development Candidate for the Treatment of Propionic Acidemia and Methylmalonic Acidemia” (J Med Chem, 2021)

Legend:
[1] = target: Bile salt export pump (Homo sapiens, UniProt O95342); experiment: Inhibition of human BSEP assessed as reduction in BSEP-mediated taurocholate transport at 345 uM relative to control
[2] = Stability in human hepatocytes assessed as unchanged compound at 50 uM measured after 4 hrs; assay type: ADME, cell-based, Hepatocyte; conditions: read-out: Stabilty
[3] = Stability in rat hepatocytes assessed as unchanged compound at 50 uM measured after 4 hrs; assay type: ADME, cell-based, Hepatocyte; conditions: read-out: Stabilty
[4] = Drug metabolism in human hepatocytes assessed as formation of 2,2-dimethylbutanoic acid-CoA pretreated for 30 mins followed by 13C-isoleucine addition and measured after 1 hr by MS/MS analysis relative to control; assay type: ADME, cell-based; conditions: Hepatocyte
[5] = Drug level in Gottingen minipig blood at 10 mg/kg, po using radiolabeled compound measured after 72 hrs by quantitative whole-body autoradiography; assay type: ADME, organism-based, Sus scrofa domesticus; conditions: pig, in vivo, BLD = below limit of detection
[6] = target: T1, Organic anion transporter 3 (Homo sapiens, UniProt Q8TCC7); experiment: Inhibition of human OAT3 assessed as reduction in OAT3-mediated tenofovir transport
T1 sequence (Q8TCC7 whole entry): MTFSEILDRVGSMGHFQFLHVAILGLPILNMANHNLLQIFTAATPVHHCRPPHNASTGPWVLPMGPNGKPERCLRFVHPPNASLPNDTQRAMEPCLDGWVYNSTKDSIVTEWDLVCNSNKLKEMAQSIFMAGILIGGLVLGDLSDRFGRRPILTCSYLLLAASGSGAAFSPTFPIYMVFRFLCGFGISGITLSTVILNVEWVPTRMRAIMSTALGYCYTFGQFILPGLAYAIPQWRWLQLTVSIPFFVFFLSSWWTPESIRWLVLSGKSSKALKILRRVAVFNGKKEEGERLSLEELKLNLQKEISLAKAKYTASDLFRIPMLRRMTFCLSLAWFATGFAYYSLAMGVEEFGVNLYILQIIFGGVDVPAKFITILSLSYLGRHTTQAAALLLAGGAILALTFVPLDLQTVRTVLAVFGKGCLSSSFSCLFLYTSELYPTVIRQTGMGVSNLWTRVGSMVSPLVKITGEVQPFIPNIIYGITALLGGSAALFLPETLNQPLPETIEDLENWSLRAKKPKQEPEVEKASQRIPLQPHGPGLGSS

[7] = Drug excretion in Sprague-Dawley rat urine at 10 mg/kg, po using radiolabeled compound measured at 1 hr post dose; assay type: ADME, organism-based; conditions: in vivo
[8] = Cmax in CD1 mouse at 300 mg/kg, po; assay type: ADME, organism-based; design: route oral, dose 300 mg/kg; conditions: in vivo
[9] = Tmax in CD1 mouse at 100 mg/kg, po; assay type: ADME, organism-based; conditions: in vivo
[10] = Ratio of drug level in liver to plasma in Sprague-Dawley rat at 10 mg/kg, po measured at 1 hr post dose; assay type: ADME, organism-based; conditions: liver (relative to plasma)
[11] = Cmax in Sprague-Dawley rat at 200 mg/kg, po; assay type: ADME, organism-based; design: route oral, dose 200 mg/kg; conditions: in vivo
[12] = Half life in CD1 mouse at 30 mg/kg, po; assay type: ADME, organism-based; conditions: in vivo
[13] = AUC (0 to infinity) in CD1 mouse at 300 mg/kg, iv; assay type: ADME, organism-based; design: route intravenous, time infinity, dose 300 mg/kg; conditions: in vivo
[14] = Reduction of propionyl-CoA in human hepatocytes derived from methylmalonic acidemia pretreated for 30 mins followed by 13C-isoleucine addition and measured after 1 hr by MS/MS analysis; assay type: functional, cell-based; conditions: hepatocyte
[15] = target: ATP-dependent translocase ABCB1 (Homo sapiens, UniProt P08183); experiment: Inhibition of human MDR1 assessed as reduction in NMQ transport at 24000 uM relative to control
Sequence of ATP-dependent translocase ABCB1 (P08183 whole entry): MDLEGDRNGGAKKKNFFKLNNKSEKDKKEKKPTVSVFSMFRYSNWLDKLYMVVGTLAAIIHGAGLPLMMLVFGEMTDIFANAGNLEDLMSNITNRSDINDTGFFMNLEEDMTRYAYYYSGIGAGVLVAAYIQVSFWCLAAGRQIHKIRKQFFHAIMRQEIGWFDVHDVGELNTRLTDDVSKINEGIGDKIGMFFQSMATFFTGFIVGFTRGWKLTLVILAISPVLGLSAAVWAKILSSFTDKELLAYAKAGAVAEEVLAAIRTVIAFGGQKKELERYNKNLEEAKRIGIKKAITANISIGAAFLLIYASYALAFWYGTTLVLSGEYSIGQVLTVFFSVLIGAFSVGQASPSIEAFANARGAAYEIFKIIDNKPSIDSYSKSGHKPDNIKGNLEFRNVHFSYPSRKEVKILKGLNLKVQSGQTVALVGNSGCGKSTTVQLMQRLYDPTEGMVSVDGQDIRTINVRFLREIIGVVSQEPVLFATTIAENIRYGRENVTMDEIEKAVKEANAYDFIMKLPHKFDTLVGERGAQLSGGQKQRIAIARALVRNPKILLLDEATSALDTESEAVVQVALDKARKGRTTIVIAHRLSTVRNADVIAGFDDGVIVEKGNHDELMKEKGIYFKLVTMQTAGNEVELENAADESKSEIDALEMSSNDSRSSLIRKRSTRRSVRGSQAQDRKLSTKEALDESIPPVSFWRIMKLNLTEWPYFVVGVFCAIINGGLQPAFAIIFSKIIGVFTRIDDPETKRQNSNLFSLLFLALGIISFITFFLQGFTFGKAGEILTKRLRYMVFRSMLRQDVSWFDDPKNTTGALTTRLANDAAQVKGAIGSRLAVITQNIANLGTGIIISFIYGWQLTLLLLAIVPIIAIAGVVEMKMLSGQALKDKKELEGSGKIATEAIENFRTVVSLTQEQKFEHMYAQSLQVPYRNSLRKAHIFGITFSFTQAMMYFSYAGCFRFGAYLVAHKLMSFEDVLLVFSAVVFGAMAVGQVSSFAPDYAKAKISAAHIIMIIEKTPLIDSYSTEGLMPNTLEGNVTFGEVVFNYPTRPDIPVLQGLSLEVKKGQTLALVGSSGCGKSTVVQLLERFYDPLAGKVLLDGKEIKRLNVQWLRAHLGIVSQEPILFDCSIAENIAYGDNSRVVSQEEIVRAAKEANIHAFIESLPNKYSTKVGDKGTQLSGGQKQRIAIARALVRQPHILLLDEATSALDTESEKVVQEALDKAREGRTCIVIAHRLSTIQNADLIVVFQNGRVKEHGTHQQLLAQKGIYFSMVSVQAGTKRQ

[16] = Reduction of propionyl carnitine in human hepatocytes derived from methylmalonic acidemia patient pretreated for 30 mins followed by 13C-isoleucine addition and measured after 1 hr by MS/MS analysis; assay type: functional, cell-based; conditions: hepatocyte
[17] = Half life in Sprague-Dawley rat at 50 mg/kg, po; assay type: ADME, organism-based; conditions: in vivo
[18] = Cmax in Sprague-Dawley rat at 50 mg/kg, po; assay type: ADME, organism-based; design: route oral, dose 50 mg/kg; conditions: in vivo
[19] = AUC (0 to infinity) in Gottingen minipig at 10 mg/kg, po using radiolabeled compound by quantitative whole-body autoradiography; assay type: ADME, organism-based, Sus scrofa domesticus; design: time infinity, route oral, dose 10 mg/kg; conditions: pig, in vivo
[20] = Half life in CD1 mouse at 100 mg/kg, po; assay type: ADME, organism-based; conditions: in vivo
[21] = Dissociation constant, pKa of the compound; assay type: physicochemical
[22] = AUC (0 to infinity) in CD1 mouse at 100 mg/kg, po; assay type: ADME, organism-based; design: route oral, time infinity, dose 100 mg/kg; conditions: in vivo
[23] = Cmax in CD1 mouse at 30 mg/kg, iv; assay type: ADME, organism-based; design: route intravenous, dose 30 mg/kg; conditions: in vivo
[24] = Drug metabolism in Gottingen minipig urine assessed as HST5040-carnitine metabolite formation at 10 mg/kg administered as single dose by LC/MS analysis; assay type: ADME, organism-based, Sus scrofa domesticus; conditions: pig, in vivo
[25] = Reduction of 2-Methylcitric acid in human hepatocytes derived from propionic acidemia patient at 30 uM pretreated for 30 mins followed by 13C-isoleucine addition and measured after 1 hr by MS/MS analysis relative to control; assay type: functional, Hepatocyte; design: scale not given: the % may be the effect or the level left; conditions: time 90 min, 1.5 h
[26] = Drug metabolism in Sprague-Dawley rat feces assessed as HST5040-glycine metabolite formation at 10 mg/kg administered as single dose by LC/MS analysis; assay type: ADME, organism-based; conditions: in vivo
[27] = target: T2, Multidrug and toxin extrusion protein 2 (Homo sapiens, UniProt Q86VL8); experiment: Inhibition of human MATE2K assessed as reduction in MATE2K-mediated metformin transport at 14900 uM relative to control
T2 sequence (Q86VL8 whole entry): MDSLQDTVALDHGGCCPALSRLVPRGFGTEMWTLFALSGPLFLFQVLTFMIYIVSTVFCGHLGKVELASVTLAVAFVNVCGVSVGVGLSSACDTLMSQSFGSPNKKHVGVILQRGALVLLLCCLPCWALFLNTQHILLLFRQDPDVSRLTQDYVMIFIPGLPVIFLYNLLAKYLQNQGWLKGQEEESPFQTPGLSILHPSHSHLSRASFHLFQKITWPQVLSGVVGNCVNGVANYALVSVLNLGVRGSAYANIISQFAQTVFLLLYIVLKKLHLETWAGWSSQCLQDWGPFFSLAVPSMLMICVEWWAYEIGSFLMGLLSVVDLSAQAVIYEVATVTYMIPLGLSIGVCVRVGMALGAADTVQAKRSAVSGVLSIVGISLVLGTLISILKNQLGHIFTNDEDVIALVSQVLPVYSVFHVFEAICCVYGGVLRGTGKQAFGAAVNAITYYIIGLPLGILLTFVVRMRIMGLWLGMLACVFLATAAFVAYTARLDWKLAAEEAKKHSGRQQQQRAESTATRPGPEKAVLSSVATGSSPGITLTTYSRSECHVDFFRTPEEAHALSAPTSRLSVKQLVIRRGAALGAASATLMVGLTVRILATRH

[28] = Drug metabolism in Sprague-Dawley rat feces assessed as HST5040-glucuronide metabolite formation at 10 mg/kg administered as single dose by LC/MS analysis; assay type: ADME, organism-based; conditions: in vivo
[29] = Drug metabolism in human hepatocytes derived from methylmalonic acidemia patient assessed as formation of 2,2-dimethylbutanoic acid-CoA pretreated for 30 mins followed by 13C-isoleucine addition and measured after 1 hr by MS/MS analysis relative to control; assay type: ADME, cell-based; conditions: Hepatocyte
[30] = Reduction of propionyl carnitine in human hepatocytes derived from methylmalonic acidemia patient at 30 uM pretreated for 30 mins followed by 13C-isoleucine addition and measured after 1 hr by MS/MS analysis relative to control; assay type: functional, Hepatocyte; design: scale not given: the % may be the effect or the level left; conditions: time 90 min, 1.5 h

Sequence of Bile salt export pump (O95342 whole entry): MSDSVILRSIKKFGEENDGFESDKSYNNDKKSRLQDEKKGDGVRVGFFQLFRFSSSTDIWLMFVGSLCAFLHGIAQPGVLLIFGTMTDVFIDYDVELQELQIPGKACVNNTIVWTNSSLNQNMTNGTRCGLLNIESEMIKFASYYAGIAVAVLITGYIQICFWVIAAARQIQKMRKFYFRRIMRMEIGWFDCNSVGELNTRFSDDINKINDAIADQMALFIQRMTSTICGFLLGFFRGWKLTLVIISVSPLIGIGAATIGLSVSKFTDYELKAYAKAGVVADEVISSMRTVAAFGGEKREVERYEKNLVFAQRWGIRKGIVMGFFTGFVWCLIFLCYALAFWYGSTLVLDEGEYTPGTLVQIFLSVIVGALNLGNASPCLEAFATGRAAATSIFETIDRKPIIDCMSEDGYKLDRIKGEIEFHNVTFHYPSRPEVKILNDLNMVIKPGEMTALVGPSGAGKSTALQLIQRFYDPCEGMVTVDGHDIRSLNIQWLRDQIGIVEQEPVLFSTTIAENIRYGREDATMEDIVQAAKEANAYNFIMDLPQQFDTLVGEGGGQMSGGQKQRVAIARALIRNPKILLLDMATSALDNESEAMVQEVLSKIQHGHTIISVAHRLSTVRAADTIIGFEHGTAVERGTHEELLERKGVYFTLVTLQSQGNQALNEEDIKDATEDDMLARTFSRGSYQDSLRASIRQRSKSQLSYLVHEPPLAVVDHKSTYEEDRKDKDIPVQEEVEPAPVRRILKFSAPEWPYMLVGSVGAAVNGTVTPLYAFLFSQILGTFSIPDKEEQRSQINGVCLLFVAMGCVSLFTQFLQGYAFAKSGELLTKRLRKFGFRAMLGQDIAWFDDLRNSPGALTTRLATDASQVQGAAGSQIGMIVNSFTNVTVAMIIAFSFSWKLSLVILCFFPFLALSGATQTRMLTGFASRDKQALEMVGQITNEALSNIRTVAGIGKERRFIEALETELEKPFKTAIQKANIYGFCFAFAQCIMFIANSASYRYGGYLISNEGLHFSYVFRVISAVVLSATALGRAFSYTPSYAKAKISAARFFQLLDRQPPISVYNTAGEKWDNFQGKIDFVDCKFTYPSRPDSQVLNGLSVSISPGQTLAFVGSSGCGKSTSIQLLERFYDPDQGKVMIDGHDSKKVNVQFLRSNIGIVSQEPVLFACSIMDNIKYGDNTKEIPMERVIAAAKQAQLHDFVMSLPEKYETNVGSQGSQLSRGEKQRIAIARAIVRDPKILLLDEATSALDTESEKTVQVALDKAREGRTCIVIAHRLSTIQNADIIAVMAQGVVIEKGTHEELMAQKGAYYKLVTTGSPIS

- remaining at 4 h, 50 µM [2]: 88%
- remaining at 4 h, 50 µM [3]: 86%
- Drug uptake [5]: Bld
- IC50 [6]: 3510 µM
- Drug excretion [7]: 72%
- Cmax [8]: 465 µg/mL
- Tmax [9]: 30 min
- Kp at 1 h [10]: 4.6
- Cmax [11]: 113 µg/mL
- half-life [12]: 35.4 min
- AUC(0-inf) [13]: 1250 µg·h/mL
- inhibition (INH) [15]: Not Active
- half-life [17]: 196 min
- Cmax [18]: 21.9 µg/mL
- AUC [19]: 91.3 µg·h/mL
- half-life [20]: 65.4 min
- pKa [21]: 4.4
- AUC(0-inf) [22]: 219 µg·h/mL
- Cmax [23]: 59.4 µg/mL
- Drug metabolism [24]: Metabolite_Detected
- Drug metabolism [26]: Metabolite_Detected
- Drug metabolism [28]: Metabolite_Detected
Compound: CCC(C)(C)C(=O)O [DIMEBUTIC ACID]
- inhibition (INH) [1]: Not Active
- EC50 [4]: 8.3 µM
- EC50 [14]: 2.1 µM
- EC50 [16]: 1.4 µM
- Activity [25]: -78.6%
- inhibition (INH) [27]: Not Active
- EC50 [29]: 3.5 µM
- Activity [30]: -65.9%
